Data set [1] can be described thus: Dissolving power for crystalline UV light protection filters. In kind it is physicochemical. The note with it: 22° C., percent by weight; for Dissolving power (maximum dissolved amount of UV filter) BP-3: Benzophenone-3 dissolved in the product; for Dissolving power (maximum dissolved amount of UV filter) BEMT: Bis-ethylhexyloxyphenol Methoxyphenyl Triazine dissolved in the product; for Dissolving power (maximum dissolved amount of UV filter) BMDM: Butyl Methoxydibenzoylmethane dissolved in the product; for Dissolving power (maximum dissolved amount of UV filter) EHT: Octyl Triazone dissolved in the product. An excerpt: Four representative UV-A or UV-B light protection filters were chosen as representatives for testing the dissolving power for crystalline UV light protection filters in isononyl benzoate (Vestinol® INB, Evonik Oxeno GmbH). These were Benzophenone-3 (2-hydroxy-4-methoxy-benzophenone, BP-3), Butyl Methoxydibenzoylmethane (BMDM), Octyl Triazone (2,4,6-trianilino-p-(carbo-2′-ethylhexyl-1′-oxy)-1,3,5-triazine, EHT) and bemotrizinol (Bis-ethylhexyloxyphenol Methoxyphenyl Triazine, BEMT).
For determination of the dissolving power for these […] UV light protection filters, in each case a particular amount (50 g) of one of the compounds according to the invention was initially introduced into the dissolving vessel and temperature-controlled at 22° C. 1 percent by weight of a UV light protection filter was then added and the mixture was stirred until this amount had dissolved completely and homogeneously. This operation was repeated until the maximum amount of the UV light protection filter which can be dissolved had been exceeded. For complete dissolving, a relatively long stirring time of several hours was often necessary at higher concentrations.
Once the maximum concentration had been roughly determined in this manner, the test was repeated with smaller weights of the UV light protection filter for fine determination of the concentration range around this maximum concentration.
The compound Tegosoft® TN (C12-15 Alkyl Benzoate) was used as a reference.

The conditions of data set [2]: known solvents (lipids) for this UV-B filter; cited from earlier work.

With `CC(C)CCCCCCOC(=O)c1ccccc1` [Isononyl Benzoate, isononyl benzoate], in data set [1], the “Dissolving power (maximum dissolved amount of UV filter) BP-3” value turned out to be 21%, the “Dissolving power (maximum dissolved amount of UV filter) BEMT” value is recorded as 12%, the “Dissolving power (maximum dissolved amount of UV filter) BMDM” value came to 14% and the “Dissolving power (maximum dissolved amount of UV filter) EHT” value stood at 6%.

For `CCCCC(CC)COC(=O)c1ccc(Nc2nc(Nc3ccc(C(=O)OCC(CC)CCCC)cc3)nc(Nc3ccc(C(=O)OCC(CC)CCCC)cc3)n2)cc1` (stereo not drawn) [UVINUL™ T 150, 4,4′,4″-(1,3,5-Triazine-2,4,6-triyltriimino)-tris-benzoic acid tris(2-ethylhexyl ester)], the “Maximum amount of the filter dissolved by known solvents” value in data set [2] is “approx. 15 wt. %”.

Regarding “C12-15 Alkyl Benzoate [Tegosoft ® TN, reference compound]”, in data set [1], the “Dissolving power (maximum dissolved amount of UV filter) BP-3” value turned out to be 15%, the “Dissolving power (maximum dissolved amount of UV filter) BEMT” value was found to be 9%, the “Dissolving power (maximum dissolved amount of UV filter) BMDM” value is listed as 13% and the “Dissolving power (maximum dissolved amount of UV filter) EHT” value is given as 4%.

Source of the values: US9011826B2, “Cosmetic and dermatological formulations including isononyl benzoate” (Evonik Degussa GmbH, priority 2007, dated 2015).
